US20240294488A1, “ISOTOPOLOGES, SALTS, CRYSTALLINE FORMS, STEREOISOMERS, OF METHYLONE AND ETHYLONE AND METHODS OF USE THEREOF” (Terran Biosciences Inc., priority 2021, published 2024)
Structures can show the parent of a compound that is named as a salt.

Columns and labels:
Sprague-Dawley rats = assay: Rat elevated zero maze model of anxiety; type: in vivo; conditions: for frequency of stretched attend postures (SAPs) / time spent in the open arms: 30 min pretest, 5-min test; for time spent in the open arms: vs vehicle; for anxiogenic effect: across doses tested (2.5-30 mg/kg ip); for anxiolytic effect: at a sufficient dose
Source text: The rat zero-maze model is a refined alternative to the plus-maze, the most widely used animal model of anxiety, and consists of an elevated annular platform, divided equally into four quadrants. Two opposite quadrants are enclosed by Perspex walls on both the inner and the outer edges of the platform, while the remaining two opposite quadrants are open being enclosed only by a Perspex “lip”. Animals will show a preference for the closed areas, and avoidance of the open sections is assumed to stem from a rodent's natural aversion to open, exposed spaces. The primary index of anxiety, which reflect changes in open arm preference, is the percentage of time spent on the open areas. A reduction in the amount of activity on the open areas is considered to reflect an increase in anxiety. Other, ethologically-based behaviours are also assessed as indices of anxiety. One of the most important is stretched attend postures (SAP) from closed to open quadrants. […] Shepherd, J K; et al., (1994) Behavioural and pharmacological validation of the elevated “zero-maze” as an animal model of anxiety. Psychopharmacol., 116:56-64.
Male Sprague-Dawley 200-250 g (Envigo UK) rats were used. Animals were group-housed (5 per cage; cage size: 40×40×20 cm) in a temperature-controlled environment (22±2° C.), under a 12 h light-dark cycle (lights on: 08:00 hours) for one week prior to testing. Food and water were freely available. Number of animals per group=5. Animals were moved into the experimental room 16-24 hours before testing.
The elevated 0-maze comprises a black Perspex annular platform (105 cm diameter, 10 cm width) elevated to 65 cm above ground level, divided equally into four quadrants. Two opposite quadrants are enclosed by clear red Perspex walls (27 cm high) on both the inner and outer edges of the platform, while the remaining two opposite quadrants are surrounded only by a Perspex “lip” (1 cm high) which serves as a tactile guide to animals on these open areas.
Subjects were weighed and tail marked before being injected. After a specified pretreatment time, subjects were placed in a closed quadrant and a 5-min test period were recorded on videotape for subsequent analysis. The maze were cleaned with 5% methanol/water solution and dried thoroughly between test sessions. Behavioural measures comprise percentage time spent on the open areas (% TO) and frequency of stretched attend postures (SAP) from closed to open quadrants. Since the control groups were all treated identically with the same vehicle these were combined to increase power. The Chlordiazepoxide groups were also treated identically with the same dose so these were also combined to increase power. Animals are scored as being in the open area when all four paws were in an open quadrant and in the closed area only when all four paws have passed over the open-closed divide. All testing were carried out between 9.00 and 16.00 hours.
Drug Versus Vehicle Treatments For each study, a 1-way ANOVA was conducted across vehicle, CDP, and drug treatment groups. Each group was compared to the vehicle group and a p-value for treatment determined by Fishers Least Significant Difference (LSD) test. This analysis was performed in GraphPad Prism (Version 9).Formulations: […]
Intraperitoneal (IP): Racemic methylone HCl was formulated in Vehicle 1 (Saline) for injection to concentrations of 1, 3 and 6 mg/mL to provide doses of 5, 15 and 30 mg/kg when administered ip in 5 mL/kg dosing volumes.
Intraperitoneal (IP): S-methylone HCl was formulated in Vehicle 1 (Saline) for injection to concentrations of 0.5, 1, 1.5, 3 and 6 mg/mL to provide doses of 2.5, 5, 7.5, 15 and 30 mg/kg when administered ip in 5 mL/kg dosing volumes.
Intraperitoneal (IP): R-methylone HCl was formulated in Vehicle 1 (Saline) for injection to concentrations of 1, 3 and 6 mg/mL to provide doses of 5, 15 and 30 mg/kg when administered ip in 5 mL/kg dosing volumes. […]

[1] = Plasma and brain concentration at end of zero maze study; type: in vivo, rat; conditions: end of zero maze study, 5, 15, 30 mg/kg ip, FIG. 68 and FIG. 69
Protocol: Terminal sampling. At the end of the study, terminal blood was collected from 2 of the vehicle treated rats (>5 mL) and from all methylone HCl treated rats (500 uL) by CP under CO2. Blood samples were placed into Eppendorf tubes on ice containing 22 μL/mL blood (vehicle treated) or 11 μL EDTA (93 mg/mL) (Methylone HCl treated rats) and gently mixed. After no longer than 30 min, blood samples were centrifuged at 10,000 rpm×3 min and plasma samples (>2 mL (vehicle) or 2×100 μL (Methylone HCl treated) placed into Eppendorf tubes (Vehicle) or 96 well plates on dry ice. Immediately after blood sampling, brains were excised, rinsed in saline, blotted, weighed and snap-frozen in liquid N2. All samples were stored at −20° C. until dispatched on dry ice for analysis.
Terminal sampling. At the end of the study, terminal blood was collected from 2 of the vehicle treated rats (>5 mL) and from all S-methylone HCl treated rats (500 uL) by CP under CO2. Blood samples were placed into Eppendorf tubes on ice containing 22 μL/mL blood (vehicle treated) or 11 μL EDTA (93 mg/mL) (S-methylone HCl treated rats) and gently mixed. […]

[2] = 30 mg/kg ip vs chlordiazepoxide 6 mg/kg ip

Row | SMILES | frequency of stretched attend postures (SAPs) (Sprague-Dawley rats; 2.5 mg/kg ip) | frequency of stretched attend postures (SAPs) (Sprague-Dawley rats; 5 mg/kg ip) | time spent in the open arms (Sprague-Dawley rats; 5 mg/kg ip) | frequency of stretched attend postures (SAPs) (Sprague-Dawley rats; 7.5 mg/kg ip) | time spent in the open arms (Sprague-Dawley rats; 7.5 mg/kg ip) | frequency of stretched attend postures (SAPs) (Sprague-Dawley rats; 15 mg/kg ip) | time spent in the open arms (Sprague-Dawley rats; 15 mg/kg ip) | decrease in SAPs compared with chlordiazepoxide (Sprague-Dawley rats; [2]) | time spent in the open arms compared with chlordiazepoxide (Sprague-Dawley rats; [2]) | frequency of stretched attend postures (SAPs) (Sprague-Dawley rats; 30 mg/kg ip) | time spent in the open arms (Sprague-Dawley rats; 30 mg/kg ip) | anxiogenic effect (Sprague-Dawley rats) | anxiolytic effect (Sprague-Dawley rats) | frequency of SAPs, dose dependence (Sprague-Dawley rats; 5, 15 and 30 mg/kg ip) | time spent in the open arms, dose dependence (Sprague-Dawley rats; 5, 15 and 30 mg/kg ip) | decrease in SAPs compared with chlordiazepoxide (Sprague-Dawley rats; 15 mg/kg ip vs chlordiazepoxide 6 mg/kg ip) | concentration in plasma and brain [1]
1 | CN[C@@H](C)C(=O)c1ccc2c(c1)OCO2 [(S)-Methylone Hydrochloride, (S)-1-(Benzo[d][1,3]dioxol-5-yl)-2-(methylamino)propan-1-one Hydrochloride] | dose dependent increase in SAPs | dose dependent increase in SAPs | the time spent in the open arms decreased as the dose increased | dose dependent decrease in SAPS | the time spent in the open arms decreased as the dose increased | dose dependent decrease in SAPS | the time spent in the open arms decreased as the dose increased | even more effective than chlordiazepoxide | as effective as chlordiazepoxide | dose dependent decrease in SAPS | the time in the open arms increased | show anxiogenic effects at lower doses | effective anxiolytics |  |  |  | 
2 | CN[C@H](C)C(=O)c1ccc2c(c1)OCO2 [(R)-Methylone Hydrochloride, (R)-1-(Benzo[d][1,3]dioxol-5-yl)-2-(methylamino)propan-1-one Hydrochloride] |  |  |  |  |  |  |  | to the same level as chlordiazepoxide | as effective as chlordiazepoxide | significantly decreasing SAPs |  | did not show any anxiogenic effect at any dose | effective anxiolytics | dose dependent decrease in SAPs | dose dependent increase in time spent in the open arms |  | 
3 | CNC(C)C(=O)c1ccc2c(c1)OCO2 (racemic) [(rac)-Methylone Hydrochloride, 3,4-methylenedioxy-N-methylcathinone hydrochloride] |  |  | a decrease in time spent in the open arms vs placebo |  |  | dose dependent decrease in SAPs | no difference from placebo |  |  | a decrease in SAPs | a significant decrease in time spent in the open arms | show anxiogenic effects at lower doses | effective anxiolytics |  |  | not as effective as chlordiazepoxide | increased in both brain and plasma at the higher doses
